{"source": "patent US11980774B2", "about": "“Illumination devices and related methods for phototherapeutic light treatments in the presence of vitamins” (priority 2021, dated 2024)", "test_system": "South African variant of SARS-CoV-2 (SARS-CoV-2 SA)", "type": "cell-based", "conditions": "10 μM RFN, no ascorbate; 425 nm light 7.5 J/cm^2; FIG. 3B", "data": [{"compound": "Cc1cc2nc3c(=O)[nH]c(=O)nc-3n(C[C@H](O)[C@H](O)[C@H](O)CO)c2cc1C", "note": "[riboflavin]", "values": [{"measurement": "fold reduction in viral loads of SARS-CoV-2 SA", "result": 642, "unit": "fold"}, {"measurement": "reduction in viral loads of SARS-CoV-2 SA", "result": "~99.8", "unit": "%"}, {"measurement": "reductions in viral loads of SARS-CoV-2 SA", "result": "significant reductions"}]}]}
